Source: PMC10688023 (Journal of chemical information and modeling, 2023)
Counter-ions that a name gives are not always drawn. Like-named read-outs stand apart in the source and are kept apart here.

Columns and labels:
BChE = details: cited from earlier work
recombinant human BChE [1] = molecular target: T1, recombinant human BChE (Homo sapiens, UniProt P06276); type: biochemical; details: for BChE inhibitory effect (activity call): active in colorimetric assay and in fluorescence assay
recombinant human BChE [2] = molecular target: T1, recombinant human BChE
recombinant human AChE [3] = molecular target: T2, recombinant human AChE (Homo sapiens, UniProt P22303)
T2 sequence (P22303 32-614): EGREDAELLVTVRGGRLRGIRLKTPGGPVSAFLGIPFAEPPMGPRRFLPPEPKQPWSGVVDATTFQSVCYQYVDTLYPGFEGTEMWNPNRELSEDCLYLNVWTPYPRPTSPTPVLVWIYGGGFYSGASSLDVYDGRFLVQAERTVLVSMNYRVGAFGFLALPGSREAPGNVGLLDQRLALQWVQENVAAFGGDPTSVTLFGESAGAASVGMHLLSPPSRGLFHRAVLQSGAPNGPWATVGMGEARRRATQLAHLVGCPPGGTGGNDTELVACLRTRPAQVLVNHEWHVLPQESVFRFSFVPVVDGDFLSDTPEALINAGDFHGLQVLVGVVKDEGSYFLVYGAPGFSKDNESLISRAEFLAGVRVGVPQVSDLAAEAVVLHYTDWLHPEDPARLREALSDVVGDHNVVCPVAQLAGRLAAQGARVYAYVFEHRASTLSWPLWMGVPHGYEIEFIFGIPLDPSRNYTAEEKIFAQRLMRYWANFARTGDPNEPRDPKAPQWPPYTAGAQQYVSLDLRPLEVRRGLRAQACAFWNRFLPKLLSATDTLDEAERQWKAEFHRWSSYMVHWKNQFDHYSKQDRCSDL

recombinant human AChE [4] = molecular target: T2, recombinant human AChE; details: fluorescence-based assay
AChE = details: ref [8], cited from earlier work

T1 sequence (P06276 29-602): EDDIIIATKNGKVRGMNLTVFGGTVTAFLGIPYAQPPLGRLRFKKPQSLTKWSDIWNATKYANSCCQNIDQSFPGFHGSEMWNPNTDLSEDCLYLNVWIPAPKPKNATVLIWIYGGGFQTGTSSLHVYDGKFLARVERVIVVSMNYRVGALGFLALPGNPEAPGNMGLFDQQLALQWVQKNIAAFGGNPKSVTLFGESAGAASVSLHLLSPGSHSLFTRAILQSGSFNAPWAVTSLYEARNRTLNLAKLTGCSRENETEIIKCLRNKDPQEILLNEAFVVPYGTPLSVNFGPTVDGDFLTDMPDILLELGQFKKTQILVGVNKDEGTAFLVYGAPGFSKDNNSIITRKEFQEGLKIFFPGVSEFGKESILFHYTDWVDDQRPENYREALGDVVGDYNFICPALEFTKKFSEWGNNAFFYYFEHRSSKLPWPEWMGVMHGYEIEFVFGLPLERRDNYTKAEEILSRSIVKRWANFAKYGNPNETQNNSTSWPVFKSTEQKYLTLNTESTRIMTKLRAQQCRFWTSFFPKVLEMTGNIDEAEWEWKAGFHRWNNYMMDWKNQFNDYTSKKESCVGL

For `CCN(CC)C(C)CN1c2ccccc2Sc2ccccc21` (stereo not drawn) [ethopropazine], the IC50 (BChE; read-out: IC50, BChE inhibition, ref [41], [42]) is listed as 210 to 300 nM and the “selectivity for BChE over AChE” value (BChE; ref [39]) is listed as ~ 1000 fold.

For `CCN(CC)CCOC(=O)C(Cc1cccc2ccccc12)CC1CCCO1` (stereo not drawn) [nafronyl oxalate], the “BChE inhibitory effect (activity call)” value (recombinant human BChE [1]) was “confirmed by both assays”.

In the case of `CC(CCc1ccccc1)NC(C)C(O)c1ccc(O)cc1` (stereo not drawn) [nylidrin hydrochloride], the “BChE inhibitory effect (activity call)” value (recombinant human BChE [1]) is reported as “confirmed by both assays”.

In the case of `Cc1ccc(C)c(-n2cc(CN(C)CCO)c(-c3ccccc3)n2)c1` [NCGC00425816], the “selectivity index (SI)” value (recombinant human BChE [2]; BChE over AChE) is reported as 1250-2351, the “efficacy, BChE inhibition” value (recombinant human BChE [2]; colorimetric assay) is reported as 98.9%±3.21 and the IC50 (recombinant human BChE [2]; read-out: IC50, BChE inhibition, colorimetric assay) is reported as 40 ± 10 nM. The “efficacy, BChE inhibition” value (recombinant human BChE [1]; fluorescence-based assay) was 109%±6.76 and the IC50 (recombinant human BChE [1]; read-out: IC50, BChE inhibition, fluorescence-based assay) was 80 ± 10 nM.

For `O=C(NCc1ccnc(N2CCCC2)c1)C1CCCN(c2cc(-n3cncn3)ncn2)C1` (stereo not drawn) [NCGC00526830], the “selectivity index (SI)” value (recombinant human AChE [3]; AChE over BChE) was 79-164, the “efficacy, AChE inhibition” value (recombinant human AChE [3]; colorimetric assay) was 78%±4.18 and the IC50 (recombinant human AChE [3]; read-out: IC50, AChE inhibition, colorimetric assay) was 270 nM. For the same molecule, the “efficacy, AChE inhibition” value (recombinant human AChE [4]) was 116%±3.24 and the IC50 (recombinant human AChE [4]; read-out: IC50, AChE inhibition) was 130 ± 20 nM.

In the case of `CCN(CCCc1ccccc1)CCCc1ccccc1` [alverine citrate], the “BChE inhibitory effect (activity call)” value (recombinant human BChE [1]) is reported as “confirmed by both assays”.

With `CN(C)[C@@H](CCOc1cccc2ccccc12)c1ccccc1` [dapoxetine HCl] the “BChE inhibitory effect (activity call)” value (recombinant human BChE [1]) was “confirmed by both assays”.

In the case of `COc1ccc2c3c1O[C@H]1C[C@@H](O)C=C[C@@]31CCN(C)C2` [galantamine], the IC50 (AChE; read-out: IC50, AChE inhibition, [40]) is given as 790 nM and the “selective inhibition of AChE activity versus BChE” value (AChE) is given as 50 fold.
